Laboratory results from patent US8648086B2, “5,6-bicyclic heteroaryl-containing urea compounds as kinase inhibitors” (Ascepion Pharmaceuticals, Inc., priority 2009, dated 2014).
Structures can show the parent of a compound that is named as a salt.

Experiments:
PDGFRβ = molecular target: T1, PDGFRβ (Homo sapiens, UniProt P09619); test: PDGFRβ cell-based assay (phospho-PDGFRβ ELISA, transfected CHO cells); settings: compound at 100 nM, read-out: % PDGFRβ kinase activity remains
T1 construct: expressed in transfected cells; host or cells: CHO cells, pcDNA3.1 plasmid
T1 sequence (P09619 33-1106, species assumed): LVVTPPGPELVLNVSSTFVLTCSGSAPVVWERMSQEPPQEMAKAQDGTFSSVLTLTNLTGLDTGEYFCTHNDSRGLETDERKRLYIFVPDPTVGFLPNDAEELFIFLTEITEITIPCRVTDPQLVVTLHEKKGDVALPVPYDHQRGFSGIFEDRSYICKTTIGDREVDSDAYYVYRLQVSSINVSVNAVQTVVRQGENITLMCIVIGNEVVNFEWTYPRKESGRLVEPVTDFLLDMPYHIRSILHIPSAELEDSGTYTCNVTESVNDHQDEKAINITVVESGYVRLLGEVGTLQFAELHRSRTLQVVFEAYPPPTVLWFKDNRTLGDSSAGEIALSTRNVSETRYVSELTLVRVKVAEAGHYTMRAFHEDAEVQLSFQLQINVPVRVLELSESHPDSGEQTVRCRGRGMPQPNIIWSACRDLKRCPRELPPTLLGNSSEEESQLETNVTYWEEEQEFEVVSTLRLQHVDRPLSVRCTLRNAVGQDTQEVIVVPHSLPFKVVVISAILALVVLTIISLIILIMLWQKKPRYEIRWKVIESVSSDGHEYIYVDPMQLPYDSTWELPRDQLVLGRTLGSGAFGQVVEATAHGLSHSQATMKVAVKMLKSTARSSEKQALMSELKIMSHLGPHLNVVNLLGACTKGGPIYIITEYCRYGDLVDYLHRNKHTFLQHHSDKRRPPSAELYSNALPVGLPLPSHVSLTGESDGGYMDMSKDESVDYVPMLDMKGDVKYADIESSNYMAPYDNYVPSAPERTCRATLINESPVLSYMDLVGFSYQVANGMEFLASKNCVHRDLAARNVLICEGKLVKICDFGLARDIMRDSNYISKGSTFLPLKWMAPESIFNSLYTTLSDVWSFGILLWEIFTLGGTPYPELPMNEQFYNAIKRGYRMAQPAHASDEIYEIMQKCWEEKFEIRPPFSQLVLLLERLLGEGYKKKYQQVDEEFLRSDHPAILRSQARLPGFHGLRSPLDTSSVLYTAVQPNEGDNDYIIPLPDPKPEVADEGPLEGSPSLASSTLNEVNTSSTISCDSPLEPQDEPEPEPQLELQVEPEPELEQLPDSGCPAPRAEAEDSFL
Protocol: A standard cell-based assay for PDGFRβ kinase activity can be used to test a compound of this invention and to identify PDGFRβ antagonists.
Specifically, a compound to be tested was first dissolved in DMSO to a concentration of 10 mM and stored at −20° C. The activity of PDGFRβ in cells depends on the phosphorylation level of its intracellular domain induced by the ligand. In order to express PDGFRβ in the cell, full length PDGFRβ sequence was cloned into PC-DNA3.1 vector. The plasmid was then transfected into CHO cells. After 48 hours following the transfection, the expression of PDGFRβ in transfected CHO cells was confirmed by regular western blotting.
To screen the compound of this invention, the ELISA kit (R&D Systems, Minneapolis, Minn., USA) was used. One day before the screening, CHO cells transfected with full length PDGFRβ plasmid were grown in DMEM medium without the presence of serum. On the day of screening, various concentrations of compounds (from 0.5 nM to 500 nM) were added into DMEM medium. Two hours later, 20% of FBS (Fetal Bovine Serum) was added into the medium to stimulate the expression of phosphor-PDGFRβ. Cell lysate from approximately 5×10^5 transfected CHO cells were reacted with anti-phosphor-PDGFRβ or anti-total PDGFRβ antibody in 96 well plates, in the presence of detection antibody, the phosphor-PDGFRβ or total PDGFRβ were detected with Streptavidin-HRP (R&D Systems), followed by chemiluminescent detection.

VEGFR2 = molecular target: T2, VEGFR2 (Homo sapiens, UniProt P35968); test: VEGFR2 cell-based assay (phospho-VEGFR2 ELISA, transfected CHO cells); settings: compound at 100 nM, read-out: % VEGFR2 kinase activity remains
T2 construct: expressed in transfected cells; host or cells: CHO cells, pcDNA3.1 plasmid
T2 sequence (P35968 20-1356, species assumed): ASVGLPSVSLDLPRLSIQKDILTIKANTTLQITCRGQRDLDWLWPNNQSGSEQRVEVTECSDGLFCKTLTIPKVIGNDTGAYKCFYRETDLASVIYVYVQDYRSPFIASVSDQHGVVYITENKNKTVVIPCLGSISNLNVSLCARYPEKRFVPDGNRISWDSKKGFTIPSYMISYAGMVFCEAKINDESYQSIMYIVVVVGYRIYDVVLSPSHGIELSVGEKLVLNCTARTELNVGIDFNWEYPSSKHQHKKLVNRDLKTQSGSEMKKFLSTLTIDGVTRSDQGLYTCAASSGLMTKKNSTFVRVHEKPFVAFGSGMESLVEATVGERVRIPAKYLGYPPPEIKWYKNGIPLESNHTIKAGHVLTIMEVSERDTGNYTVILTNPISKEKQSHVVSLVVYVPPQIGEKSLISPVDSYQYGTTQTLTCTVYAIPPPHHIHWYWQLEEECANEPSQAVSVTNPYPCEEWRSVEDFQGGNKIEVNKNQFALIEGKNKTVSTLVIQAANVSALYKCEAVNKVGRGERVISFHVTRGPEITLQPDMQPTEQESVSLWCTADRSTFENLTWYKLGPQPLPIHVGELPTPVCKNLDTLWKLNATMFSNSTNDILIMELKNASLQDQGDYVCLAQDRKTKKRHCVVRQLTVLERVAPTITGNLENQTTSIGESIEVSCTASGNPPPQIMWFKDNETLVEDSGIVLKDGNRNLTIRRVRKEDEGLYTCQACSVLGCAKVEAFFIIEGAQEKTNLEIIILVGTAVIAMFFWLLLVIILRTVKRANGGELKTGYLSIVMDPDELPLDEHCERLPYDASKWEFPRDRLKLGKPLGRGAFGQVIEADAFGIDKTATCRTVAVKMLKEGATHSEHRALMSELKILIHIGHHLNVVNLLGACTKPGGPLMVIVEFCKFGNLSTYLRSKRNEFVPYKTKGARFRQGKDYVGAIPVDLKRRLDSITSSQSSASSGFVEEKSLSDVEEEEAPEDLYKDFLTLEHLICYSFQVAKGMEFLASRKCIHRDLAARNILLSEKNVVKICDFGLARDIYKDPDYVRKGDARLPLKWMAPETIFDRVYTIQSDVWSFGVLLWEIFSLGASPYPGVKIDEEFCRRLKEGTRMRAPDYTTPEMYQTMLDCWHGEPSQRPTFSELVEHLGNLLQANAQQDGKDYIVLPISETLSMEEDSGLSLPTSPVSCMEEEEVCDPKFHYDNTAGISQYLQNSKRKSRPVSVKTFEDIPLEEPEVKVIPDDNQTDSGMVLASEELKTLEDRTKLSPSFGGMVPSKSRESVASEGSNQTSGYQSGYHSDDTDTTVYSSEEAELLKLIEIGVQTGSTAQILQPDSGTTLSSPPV
Protocol: A standard cell-based assay for VEGFR2 kinase activity can be used to test compounds of this invention and to identify VEGFR2 antagonists.
Specifically, a compound to be tested was first dissolved in DMSO to a concentration of 10 mM and stored at −20° C. The activity of VEGFR2 in cells depends on the phosphorylation level at its intracellular domain induced by the ligand. In order to express VEGFR2 in the cells, full length VEGFR2 sequence was cloned into PC-DNA3.1 vector, the plasmid was then transfected into CHO cells. After 48 hours, the expression of VEGFR2 in transfected CHO cells was confirmed by regular western blotting.
To screen the compounds of this invention, the ELISA kit (R&D Systems) was used. One day before the screening, CHO cells transfected with full length VEGFR2 plasmid were grown in DMEM medium without the presence of serum. On the day of screening, various concentrations of compounds (From 0.5 nM to 500 nM) were added into DMEM medium. Two hours later, 20% of FBS (Fetal Bovine Serum) was added into the medium to stimulate the production of phosphor-VEGFR2. Cell lysate from approximately 5×10^5 transfected CHO cells were reacted with anti-phosphor-VEGFR2 or anti-total VEGFR2 antibody in 96 well plates. In the presence of detection antibody, the phosphor-VEGFR2 or total VEGFR2 were detected with Streptavidin-HRP (R&D Systems) followed by chemiluminescence detection.

c-Met = molecular target: T3, c-Met (Homo sapiens, UniProt P08581); test: c-Met cell-based assay (phospho-c-Met ELISA, A549 cells); settings: compound at 100 nM
T3 construct: endogenous in cells; host or cells: A549 cells
T3 sequence (P08581 25-1390): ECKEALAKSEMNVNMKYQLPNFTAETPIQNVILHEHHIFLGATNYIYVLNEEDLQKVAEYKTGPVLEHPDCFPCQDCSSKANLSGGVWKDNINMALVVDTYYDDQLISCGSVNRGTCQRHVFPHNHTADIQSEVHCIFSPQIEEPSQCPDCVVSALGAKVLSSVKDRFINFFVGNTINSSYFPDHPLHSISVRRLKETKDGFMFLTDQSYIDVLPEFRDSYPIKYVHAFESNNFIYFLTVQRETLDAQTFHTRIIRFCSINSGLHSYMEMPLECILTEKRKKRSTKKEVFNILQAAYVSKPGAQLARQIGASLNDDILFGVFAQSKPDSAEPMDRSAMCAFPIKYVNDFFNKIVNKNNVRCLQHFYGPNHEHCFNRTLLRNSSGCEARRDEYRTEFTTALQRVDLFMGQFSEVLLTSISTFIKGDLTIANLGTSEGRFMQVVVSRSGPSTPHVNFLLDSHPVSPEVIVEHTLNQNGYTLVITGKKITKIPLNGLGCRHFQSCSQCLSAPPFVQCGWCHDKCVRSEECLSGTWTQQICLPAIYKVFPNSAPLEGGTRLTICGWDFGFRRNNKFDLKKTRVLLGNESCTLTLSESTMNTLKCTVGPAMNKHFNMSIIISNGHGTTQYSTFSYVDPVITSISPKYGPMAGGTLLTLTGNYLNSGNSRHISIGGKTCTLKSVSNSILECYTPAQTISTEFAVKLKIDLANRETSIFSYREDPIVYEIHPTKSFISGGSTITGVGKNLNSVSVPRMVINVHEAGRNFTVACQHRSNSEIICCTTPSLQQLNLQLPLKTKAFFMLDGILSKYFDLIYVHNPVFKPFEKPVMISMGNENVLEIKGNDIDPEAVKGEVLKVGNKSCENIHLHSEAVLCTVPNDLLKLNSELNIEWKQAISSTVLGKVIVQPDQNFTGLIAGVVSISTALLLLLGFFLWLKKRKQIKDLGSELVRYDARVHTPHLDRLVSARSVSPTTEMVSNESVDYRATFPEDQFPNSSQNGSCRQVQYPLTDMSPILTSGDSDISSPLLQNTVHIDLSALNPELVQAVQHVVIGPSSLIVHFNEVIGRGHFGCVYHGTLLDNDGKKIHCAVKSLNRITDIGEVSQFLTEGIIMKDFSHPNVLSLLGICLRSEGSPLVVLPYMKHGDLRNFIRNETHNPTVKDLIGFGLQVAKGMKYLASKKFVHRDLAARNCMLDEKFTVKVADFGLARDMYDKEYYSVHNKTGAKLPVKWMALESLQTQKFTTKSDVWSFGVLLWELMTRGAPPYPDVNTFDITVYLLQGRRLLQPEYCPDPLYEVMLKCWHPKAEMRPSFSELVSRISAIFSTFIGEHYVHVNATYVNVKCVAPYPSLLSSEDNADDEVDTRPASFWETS
Protocol: A procedure for standard cell-based assay for c-Met kinase activity can be used to test compounds of this invention for their inhibitory effect on this kinase and to identify c-Met antagonists.
Specifically, a compound to be tested was first dissolved in DMSO to a concentration of 10 mM and stored at −20° C. The activity of c-Met in cells depends on the phosphorylation level at its intracellular domain induced by its ligand, Hepatocyte growth factor (HGF). In order to induce the cells to produce phosphate c-Met, paracrine HGF-dependent NSCLC (None Small Cell Lung Cancer) A549 cells were grown in DMEM with 10% FBS.
To screen compounds of this invention for their inhibitory effect on c-Met kinase, the ELISA kit (R&D Systems) was used. One day before screening procedure, A549 cells were grown in DMEM without the presence of serum. On the day of screening procedure, various concentrations of compounds (from 0.5 nM to 500 nM) were added into the culture medium. Two hours later, 20% of FBS (Fetal Bovine Serum) was added into the medium to stimulate the expression of phosphor-c-Met. After 20 minutes, cell lysate from approximately 5×10^5 A549 cells were reacted with anti-phosphor-c-Met or anti total c-Met antibody in 96 well plates. In the presence of detection antibody, the phosphor-c-Met or total c-Met can be detected with Streptavidin-HRP (R&D Systems) followed by chemiluminescence detection.

SMILES | remaining activity at 0.1 µM (PDGFRβ) [%] | remaining activity at 0.1 µM (VEGFR2) [%] | % c-Met kinase activity remains (c-Met)
Cl.O=C(Nc1ccc(Cl)cc1F)Nc1cccc2c1ccn2Cc1ccnc2[nH]ccc12 [Example 55, 1-(2-Fluoro-4-chlorophenyl)-3-[1-(1H-pyrrolo[2,3-b]pyridin-4-ylmethyl)-1H-indol-4-yl]urea hydrochloride] | ≥ 70 | < 70 | B (the percentage is greater or equal to 70%)
Cl.O=C(Nc1cc(Cl)ccc1F)Nc1cccc2c1ccn2Cc1c[nH]c2ncccc12 [Example 29, 1-(2-Fluoro-5-chlorophenyl)-3-[1-(1H-pyrrolo[2,3-b]pyridin-3-ylmethyl)-1H-indol-4-yl]urea hydrochloride] | ≥ 70 | < 70 | B (the percentage is greater or equal to 70%)
O=C(Nc1ccc(Cl)cc1)Nc1cccc2c1ccn2Cc1c[nH]c2ncccc12 [Example 10, 1-(4-Chlorophenyl)-3-[1-(1H-pyrrolo[2,3-b]pyridin-3-ylmethyl)-1H-indol-4-yl]urea hydrochloride] | ≥ 70 | ≥ 70 | B (the percentage is greater or equal to 70%)
Cl.O=C(Nc1ccc(C(F)(F)F)cc1)Nc1cccc2c1ccn2Cc1ccnc2[nH]ccc12 [Example 52, 1-(4-Trifluoromethylphenyl)-3-[1-(1H-pyrrolo[2,3-b]pyridin-4-ylmethyl)-1H-indol-4-yl]urea hydrochloride] | ≥ 70 | < 70 | B (the percentage is greater or equal to 70%)
Cl.N#Cc1ccc(NC(=O)Nc2cccc3c2ccn3Cc2ccnc3[nH]ccc23)cc1 [Example 54, 1-(4-Cyanophenyl)-3-[1-(1H-pyrrolo[2,3-b]pyridin-4-ylmethyl)-1H-indol-4-yl]urea hydrochloride] | ≥ 70 | ≥ 70 | B (the percentage is greater or equal to 70%)
Cl.O=C(Nc1ccccc1)Nc1cccc2c1ccn2Cc1c[nH]c2ncccc12 [Example 4, 1-Phenyl-3-[1-(1H-pyrrolo[2,3-b]pyridin-3-ylmethyl)-1H-indol-4-yl]urea hydrochloride] | ≥ 70 | ≥ 70 | B (the percentage is greater or equal to 70%)
Cl.O=C(Nc1cccc(OC(F)(F)F)c1)Nc1cccc2c1ccn2Cc1c[nH]c2ncccc12 [Example 21, 1-(3-Trifluoromethoxyphenyl)-3-[1-(1H-pyrrolo[2,3-b]pyridin-3-ylmethyl)-1H-indol-4-yl]urea hydrochloride] | ≥ 70 | ≥ 70 | B (the percentage is greater or equal to 70%)
COc1cccc(NC(=O)Nc2cccc3c2ccn3Cc2ccnc3[nH]ccc23)c1.Cl [Example 47, 1-(3-Methoxyphenyl)-3-[1-(1H-pyrrolo[2,3-b]pyridin-4-ylmethyl)-1H-indol-4-yl]urea hydrochloride] | ≥ 70 | < 70 | A (the percentage of kinase activity remains is below 70%)
COc1ccc(F)c(NC(=O)Nc2cccc3c2ccn3Cc2c[nH]c3ncccc23)c1 [Example 31, 1-(2-Fluoro-5-methoxyphenyl)-3-[1-(1H-pyrrolo[2,3-b]pyridin-3-ylmethyl)-1H-indol-4-yl]urea hydrochloride] | ≥ 70 |  | 
N#Cc1cccc(NC(=O)Nc2cccc3c2ccn3Cc2ccnc3[nH]ccc23)c1 [Example 53, 1-(3-Cyanophenyl)-3-[1-(1H-pyrrolo[2,3-b]pyridin-4-ylmethyl)-1H-indol-4-yl]urea hydrochloride] | ≥ 70 |  | 
Cc1ccc(Br)c(NC(=O)Nc2cccc3c2ccn3Cc2ccnc3[nH]ccc23)c1.Cl [Example 58, 1-(2-Bromo-5-methylphenyl)-3-[1-(1H-pyrrolo[2,3-b]pyridin-4-ylmethyl)-1H-indol-4-yl]urea hydrochloride] |  | < 70 | A (the percentage of kinase activity remains is below 70%)
Cl.O=C(Nc1ccccc1C(F)(F)F)Nc1cccc2c1ccn2Cc1c[nH]c2ncccc12 [Example 23, 1-(2-Trifluoromethylphenyl)-3-[1-(1H-pyrrolo[2,3-b]pyridin-3-ylmethyl)-1H-indol-4-yl]urea hydrochloride] |  | < 70 | A (the percentage of kinase activity remains is below 70%)
Cl.O=C(Nc1ccccc1F)Nc1cccc2c1ccn2Cc1ccnc2[nH]ccc12 [Example 34, 1-(2-Fluorophenyl)-3-[1-(1H-pyrrolo[2,3-b]pyridin-4-ylmethyl)-1H-indol-4-yl]urea hydrochloride] |  | < 70 | B (the percentage is greater or equal to 70%)
COc1ccccc1NC(=O)Nc1cccc2c1ccn2Cc1c[nH]c2ncccc12.Cl [Example 17, 1-(2-Methoxyphenyl)-3-[1-(1H-pyrrolo[2,3-b]pyridin-3-ylmethyl)-1H-indol-4-yl]urea hydrochloride] |  | < 70 | A (the percentage of kinase activity remains is below 70%)
O=C(Nc1ccccc1C(F)(F)F)Nc1cccc2c1ccn2Cc1ccnc2[nH]ccc12 [Example 50, 1-(2-Trifluoromethylphenyl)-3-[1-(1H-pyrrolo[2,3-b]pyridin-4-ylmethyl)-1H-indol-4-yl]urea hydrochloride] | ≥ 70 |  | 
O=C(Nc1ccccc1Cl)Nc1cccc2c1ccn2Cc1ccnc2[nH]ccc12 [Example 37, 1-(2-Chlorophenyl)-3-[1-(1H-pyrrolo[2,3-b]pyridin-4-ylmethyl)-1H-indol-4-yl]urea hydrochloride] |  | < 70 | A (the percentage of kinase activity remains is below 70%)
O=C(Nc1cccc(Cl)c1)Nc1cccc2c1ccn2Cc1c[nH]c2ncccc12 [Example 9, 1-(3-Chlorophenyl)-3-[1-(1H-pyrrolo[2,3-b]pyridin-3-ylmethyl)-1H-indol-4-yl]urea hydrochloride] |  | < 70 | B (the percentage is greater or equal to 70%)
Cl.N#Cc1cccc(NC(=O)Nc2cccc3c2ccn3Cc2c[nH]c3ncccc23)c1 [Example 26, 1-(3-Cyanophenyl)-3-[1-(1H-pyrrolo[2,3-b]pyridin-3-ylmethyl)-1H-indol-4-yl]urea hydrochloride] |  | ≥ 70 | A (the percentage of kinase activity remains is below 70%)
O=C(Nc1ccc(Cl)cc1)Nc1cccc2c1ccn2Cc1ccnc2[nH]ccc12 [Example 39, 1-(4-Chlorophenyl)-3-[1-(1H-pyrrolo[2,3-b]pyridin-4-ylmethyl)-1H-indol-4-yl]urea hydrochloride] |  | < 70 | A (the percentage of kinase activity remains is below 70%)
